Laboratory results reported in US7732451B2, “Naphthalene-containing melanocortin receptor-specific small molecule” (Palatin Technologies, Inc., priority 2002, dated 2010).

Tests used:
hMC4-R = target: T1, hMC4-R (Homo sapiens, UniProt P32245); experiment: competitive inhibition binding assay, 125I-NDP-α-MSH, membranes; conditions: for inhibition at 1 µM: 1 μM compound, average of triplicates, read-out: Inhibition at 1 μM MC4-R; for Ki: read-out: Ki (nM) MC4-R
T1 construct: expressed in transfected cells
Method: (§1) A competitive inhibition binding assay was conducted using membranes prepared from hMC3-R, hMC4-R, hMC5-R, and B-16 mouse melanoma cells (containing MC1-R) using 0.4 nM ^125I-NDP-α-MSH (New England Nuclear, Boston, Mass., USA) in 50 mM HEPES buffer containing 1 mM MgCl2, 2 mM CaCl2, and 5 mM KCl, at pH 7.2. The assay tube also contained a chosen concentration of the test compound of this invention, for determining its efficacy in inhibiting the binding of ^125I-NDP-α-MSH to its receptor.
(§2) Incubation was for 90 minutes at room temperature, after which the assay mixture was filtered and the membranes washed three times with ice cold buffer. The filter was dried and counted in a gamma counter for remaining radioactivity bound to the membranes. 100% specific binding was defined as the difference in radioactivity (cpm) bound to cell membranes in the absence and presence of 1 μM α-MSH. […] Each assay was conducted in triplicate and the actual mean values are described. The Ki (nM) of certain compounds of the invention were determined.

hMC5-R = target: T2, hMC5-R (Homo sapiens, UniProt P33032); experiment: as above; conditions: for inhibition at 1 µM: 1 μM compound, average of triplicates, read-out: Inhibition at 1 μM MC5-R; for Ki: read-out: Ki (nM) MC5-R
T2 construct: expressed in transfected cells
Method: as §1, §2

hMC3-R = target: T3, hMC3-R (Homo sapiens, UniProt P41968); experiment: as above; conditions: for inhibition at 1 µM: 1 μM compound, average of triplicates, read-out: Inhibition at 1 μM MC3-R; for Ki: read-out: Ki (nM) MC3-R
T3 construct: expressed in transfected cells
Method: as §1, §2

[1] = target: T4, MC1-R (B-16 mouse melanoma cells) (Mus musculus, UniProt Q01727); experiment: as above; conditions: for inhibition at 1 µM: 1 μM compound, average of triplicates, results less than 0% reported as 0%; for Ki: read-out: Ki (nM) MC1-R
T4 construct: B-16 mouse melanoma cells (containing MC1-R); endogenous in cells; host or cells: B-16 mouse melanoma cells
Method: as §1, §2

[2] = target: T5, MC4-R (HEK-293 cells expressing MC4-R) (Homo sapiens, UniProt P32245); experiment: cAMP assay for agonist/antagonist status; type: cell-based; conditions: antagonism = inhibition of α-MSH-induced cAMP
T5 construct: expressed in transfected cells; host or cells: HEK-293
Method: (§3) Functional evaluation of compounds at melanocortin receptors was performed by measuring the accumulation of intracellular cAMP in HEK-293 cells expressing MC3-R, MC4-R or MC5-R, and in B-16 mouse melanoma cells (containing MC1-R). Cells, suspended in Earle's Balanced Salt Solution containing 10 mM HEPES, pH 7.5, 5 mM MgCl2, 1 mM glutamine, 0.1% albumin and 0.6 mM 3-isobutyl-1-methyl-xanthine, a phosphodiesterase inhibitor, were plated in 96 well plates at a density of 0.5×10^5 cells per well. Cells were incubated with the test compounds in the presence or absence of α-MSH for 1 hour at 37° C. cAMP levels were measured by EIA (Amersham) in the cell lysates. Data analysis and EC50 values were determined using nonlinear regression analysis with Prism Graph-Pad software.
(§4) The agonist/antagonist status with respect to MC4-R of certain compounds of the invention was determined. Antagonistic activity was determined by measuring the inhibition of α-MSH-induced cAMP levels following exposure to the compounds as in Example 2.

[3] = target: T6, MC5-R (HEK-293 cells expressing MC5-R) (Homo sapiens, UniProt P33032); experiment: cAMP assay for agonist/antagonist status; type: cell-based; conditions: antagonism = inhibition of α-MSH-induced cAMP
T6 construct: expressed in transfected cells; host or cells: HEK-293
Method: as §3, §4

[4] = target: T4, MC1-R (B-16 mouse melanoma cells); experiment: cAMP assay for agonist/antagonist status; type: cell-based; conditions: antagonism = inhibition of α-MSH-induced cAMP
Method: as §3, §4

[5] = ICV feeding studies, change in food intake and body weight; type: in vivo, rat; conditions: 1 nmol, male Sprague-Dawley rats; for change in weight: 24 hour
Method: Change in food intake and body weight was evaluated for selected compounds. Male Sprague-Dawley rats weighing ˜300 g at the beginning of the experiment were kept on a 12 hour on/off light cycle. Lights out was adjusted to 12:00 p.m. to allow for dosing just prior to the start of their dark period. Rats (8-12/group) were fed powdered chow and water ad libitum. For 1 week before treatment, 24-hour food intake and body weight change was recorded to assess a baseline for the group during vehicle treatment. The rats were dosed ICV with vehicle or selected compounds (1-3 nmol). The changes in body weight and food intake for the 24 hour period after dosing were determined. The changes in body weight and food intake for the 48 hour period, and in same cases for 72 hours as well, after dosing were also measured to determined reversal of changes in body weight and food intake effect back to baseline.

T4 sequence (Q01727 whole entry): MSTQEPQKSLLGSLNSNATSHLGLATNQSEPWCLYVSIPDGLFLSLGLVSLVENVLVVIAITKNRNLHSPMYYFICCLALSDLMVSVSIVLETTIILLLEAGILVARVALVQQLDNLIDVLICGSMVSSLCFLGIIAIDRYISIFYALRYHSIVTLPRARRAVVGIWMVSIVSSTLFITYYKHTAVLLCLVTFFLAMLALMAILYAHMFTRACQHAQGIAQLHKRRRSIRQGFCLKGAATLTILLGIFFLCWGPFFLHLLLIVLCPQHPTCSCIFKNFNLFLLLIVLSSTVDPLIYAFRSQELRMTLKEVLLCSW
T5 sequence (P32245 whole entry): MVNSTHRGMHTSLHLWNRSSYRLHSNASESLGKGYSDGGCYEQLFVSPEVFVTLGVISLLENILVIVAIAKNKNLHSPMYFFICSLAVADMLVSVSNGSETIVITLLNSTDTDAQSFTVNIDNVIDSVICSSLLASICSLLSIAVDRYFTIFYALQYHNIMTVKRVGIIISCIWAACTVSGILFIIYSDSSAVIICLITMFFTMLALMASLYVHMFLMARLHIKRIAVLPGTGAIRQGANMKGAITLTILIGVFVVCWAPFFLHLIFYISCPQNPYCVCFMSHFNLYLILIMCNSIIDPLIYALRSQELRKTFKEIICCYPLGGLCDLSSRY
T1 sequence (P32245 whole entry): as above
T3 sequence (P41968 whole entry): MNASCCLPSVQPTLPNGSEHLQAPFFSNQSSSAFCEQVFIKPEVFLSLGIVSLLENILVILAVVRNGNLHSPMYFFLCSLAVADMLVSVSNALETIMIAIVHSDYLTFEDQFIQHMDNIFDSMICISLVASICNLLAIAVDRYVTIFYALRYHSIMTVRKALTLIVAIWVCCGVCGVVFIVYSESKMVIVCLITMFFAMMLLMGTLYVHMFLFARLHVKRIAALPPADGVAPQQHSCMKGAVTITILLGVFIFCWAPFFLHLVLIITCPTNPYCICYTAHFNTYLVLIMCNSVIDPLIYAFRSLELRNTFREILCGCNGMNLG
T2 sequence (P33032 whole entry): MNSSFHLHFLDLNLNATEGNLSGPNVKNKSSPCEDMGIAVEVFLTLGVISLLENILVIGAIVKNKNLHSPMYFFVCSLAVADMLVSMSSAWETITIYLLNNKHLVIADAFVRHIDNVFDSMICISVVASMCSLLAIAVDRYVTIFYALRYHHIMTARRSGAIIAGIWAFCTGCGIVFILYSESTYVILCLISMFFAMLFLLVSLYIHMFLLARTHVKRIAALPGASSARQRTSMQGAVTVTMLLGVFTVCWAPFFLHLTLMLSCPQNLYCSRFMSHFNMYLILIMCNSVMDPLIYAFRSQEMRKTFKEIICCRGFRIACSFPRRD
T6 sequence (P33032 whole entry): as above

Row | SMILES | inhibition at 1 µM (hMC4-R) | inhibition at 1 µM (hMC5-R) | inhibition at 1 µM (hMC3-R) | inhibition at 1 µM [1] | agonist/antagonist status as to MC5-R [3] | agonist/antagonist status as to MC1-R [4] | Ki (hMC4-R) | Ki (hMC5-R) | Ki (hMC3-R) | Ki [1] | agonist/antagonist status as to MC4-R [2] | 24 hour change in food intake [5] | change in weight [5]
1 | NCCCC[C@H]1C(=O)N(CCc2ccc3ccccc3c2)CCN1C(=O)[C@@H](Cc1ccc(Cl)cc1Cl)NC(=O)[C@@H]1CC[C@H](c2ccccc2)N1 [Example 7] | 92% | 51% | 18% | – | – | – | – | – | – | – | – | -7.77 g | -5.88 g
2 | Cc1cc(Cl)ccc1C[C@@H](N)C(=O)N1C[C@@H](C)N(CCc2ccc3ccccc3c2)C[C@@H]1CCCNC(=N)N [Example 14, N-{3-[1-[2(R)-Amino-3-(4-chloro-2-methyl-phenyl)-propionyl]-5(R)-methyl-4-(2-naphthalen-2-yl-ethyl)-piperazin-2(S)-yl]-propyl}-guanidine] | 100% | 82% | 83% | 23% | – | – | 1 nM | 219 nM | 99 nM | 1050 nM | partial agonist | -5.5 g | no change
3 | Cc1ccc(C[C@@H](N)C(=O)N2C[C@@H](C)N(CCc3ccc4ccccc4c3)C[C@@H]2CCCNC(=N)N)c(Cl)c1 [Example 13, N-{3-[1-[2(R)-Amino-3-(2-chloro-4-methyl-phenyl)-propionyl]-5(R)-methyl-4-(2-naphthalen-2-yl-ethyl)-piperazin-2(S)-yl]-propyl}-guanidine] | 100% | 72% | 73% | 37% | – | – | 5 nM | 527 nM | 227 nM | 907 nM | antagonist | -1.6 g | -3.9 g
4 | C[C@@H]1CN(C(=O)[C@H](N)Cc2ccc(Cl)cc2Cl)[C@@H](CCCNC(=N)N)CN1CCc1ccc2ccccc2c1 [Example 11, N-{3-[1-[2(R)-Amino-3-(2,4-dichloro-phenyl)-propionyl]-5(R)-methyl-4-(2 naphthalen-2-yl-ethyl)-piperazin-2(S)-yl]-propyl}-guanidine] | 100% | 78% | 82% | 44% | – | – | 2 nM | 362 nM | 95 nM | 1130 nM | antagonist | -2.6 g | -0.3 g

Second part, led by results:

Row | inhibition at 1 µM (hMC4-R) | inhibition at 1 µM (hMC5-R) | inhibition at 1 µM (hMC3-R) | inhibition at 1 µM [1] | agonist/antagonist status as to MC5-R [3] | agonist/antagonist status as to MC1-R [4] | SMILES | Ki (hMC4-R) | Ki (hMC5-R) | Ki (hMC3-R) | Ki [1] | agonist/antagonist status as to MC4-R [2] | 24 hour change in food intake [5] | change in weight [5]
5 | 97% | 64% | 47% | 3% | inactive | agonist | C[C@H]1CN(CCc2ccc3ccccc3c2)C[C@H](CCCNC(=N)N)N1C(=O)[C@H](N)Cc1ccc(Cl)cc1Cl [Example 17 (S)-CH3, N-{3-[1-[2(R)-Amino-3-(2,4-dichloro-phenyl)-propionyl]-6(S)-methyl-4-(2-naphthalen-2-yl-ethyl)-piperazin-2(S)-yl]-propyl}-guanidine] | 21 nM | 602 nM | 551 nM | 3180 nM | agonist | – | –
6 | 95% | 36% | 32% | 14% | – | – | C[C@@H]1CN(CCc2ccc3ccccc3c2)C[C@H](CCCNC(=N)N)N1C(=O)[C@H](N)Cc1ccc(Cl)cc1Cl [Example 17 (R)-CH3, N-{3-[1-[2(R)-Amino-3-(2,4-dichloro-phenyl)-propionyl]-6(R)-methyl-4-(2-naphthalen-2-yl-ethyl)-piperazin-2(S)-yl]-propyl}-guanidine] | – | – | – | – | – | – | –
7 | 91% | 40% | 33% | 25% | – | – | N=C(N)NCCC[C@H]1CN(CCOc2ccc3ccccc3c2)CCN1C(=O)[C@@H](N)Cc1ccc(Cl)cc1Cl [Example 18] | – | – | – | – | – | – | –
